What all share (assay type): functional
Assay [1] concerns Enterococcus faecalis. Put plainly: Antimicrobial activity against vancomycin-sensitive Enterococcus faecalis 20 assessed as time required to induce sub-MIC effect at 0.2 times MIC after 1 hr by plate counting method. The note with it: Enterococcus faecalis, 20, 1 h.
Assay [2] has as its system Enterococcus faecalis. Put plainly: Antimicrobial activity against vancomycin-resistant Enterococcus faecalis 266 assessed as time required to induce sub-MIC effect at 0.2 times MIC after 1 hr by plate counting method. The note with it: Enterococcus faecalis, 266, 1 h.
Assay [3] has as its system Streptococcus pneumoniae. Kind of assay: Antimicrobial activity against Penicillin-susceptible Streptococcus pneumoniae ATCC 49617 assessed as time required to induce post antibiotic sub-MIC effect at 0.2 times MIC after 1 hr by plate counting method. Particulars: ATCC 49617, 1 h.
Assay [4] deals with Streptococcus pneumoniae. Put plainly: Antimicrobial activity against Penicillin-, erythromycin-resistant Streptococcus pneumoniae 37 assessed as time required to induce post antibiotic sub-MIC effect at 0.2 times MIC after 1 hr by plate counting method. Particulars: Streptococcus pneumoniae, 37, 1 h.
In assay [5] the test system is Staphylococcus aureus. Put plainly: Antimicrobial activity against methicillin-resistant, vancomycin-resistant Staphylococcus aureus 770 assessed as time required to induce post antibiotic sub-MIC effect at 0.2 times MIC after 1 hr by plate counting method. The note with it: Staphylococcus aureus, 770, 1 h.
Assay [6] concerns Streptococcus pneumoniae. Kind of assay: Antimicrobial activity against Penicillin-susceptible Streptococcus pneumoniae ATCC 49617 assessed as time required to induce post antibiotic sub-MIC effect at 0.3 times MIC after 1 hr by plate counting method. Particulars: ATCC 49617, 1 h.
The test system of assay [7] is Staphylococcus aureus. Put plainly: Antimicrobial activity against methicillin-susceptible, vancomycin-susceptible Staphylococcus aureus sox1 assessed as time required to induce post antibiotic sub-MIC effect at 0.3 times MIC after 1 hr by plate counting method. The note with it: sox1, 1 h.
In assay [8] the test system is Streptococcus pneumoniae. Kind of assay: Antimicrobial activity against Penicillin-intermediate Streptococcus pneumoniae s1234 assessed as time required to induce post antibiotic sub-MIC effect at 0.4 times MIC after 1 hr by plate counting method. The note with it: s1234, 1 h.
Assay [9] deals with Enterococcus faecalis. Put plainly: Antimicrobial activity against vancomycin-sensitive Enterococcus faecalis ATCC 29212 assessed as time required to induce post antibiotic sub-MIC effect at 0.4 times MIC after 1 hr by plate counting method. The note with it: ATCC 29212, 1 h.
The test system of assay [10] is Enterococcus faecalis. Kind of assay: Antimicrobial activity against vancomycin-sensitive Enterococcus faecalis 20 by microdilution method. (In general: Broth dilution looks for growth in wells or tubes with falling amounts of substance.)
The test system of assay [11] is Enterococcus faecalis. Put plainly: Antimicrobial activity against vancomycin-sensitive Enterococcus faecalis ATCC 29212 assessed as post antibiotic effect at 10 times MIC after 1 hr by plate counting method. Particulars: ATCC 29212, 1 h.
Assay [12] relates to Streptococcus pneumoniae. Put plainly: Antimicrobial activity against Penicillin-susceptible Streptococcus pneumoniae ATCC 49617 assessed as time required to induce sub-MIC effect at 0.2 times MIC after 1 hr by plate counting method. The note with it: ATCC 49617, 1 h.
In assay [13] the test system is Streptococcus pneumoniae. Kind of assay: Antimicrobial activity against Penicillin-intermediate Streptococcus pneumoniae s1234 assessed as time required to induce sub-MIC effect at 0.2 times MIC after 1 hr by plate counting method.

≈ marks a conversion by molar mass, not a printed value. Some results are limits rather than exact numbers.

On to `CCO/N=C(\C(=O)N[C@@H]1C(=O)N2C(C(=O)[O-])=C(Sc3nc(-c4cc[n+](C)cc4)cs3)CS[C@H]12)c1nsc(NP(=O)(O)O)n1` [CEFTAROLINE FOSAMIL], for which the time worked out at 0.9 h in the assay with Enterococcus faecalis [1], 1.4 h in the assay on Enterococcus faecalis [2], 1.9 h with Streptococcus pneumoniae [4] and 1.5 h in the assay with Staphylococcus aureus [5]. Besides, the PAE in the assay on Streptococcus pneumoniae [3] was 4.1 h; in the assay on Streptococcus pneumoniae [6] it was 5.9 h; in the assay on Staphylococcus aureus [7], 3.6 h; with Streptococcus pneumoniae [8], 2.5 h; in the assay on Enterococcus faecalis [9], > 10.6 h; in the assay with Enterococcus faecalis [11], 0.8 h. Further, the PAE in the assay on Streptococcus pneumoniae [12] amounted to 0.2 h; in the assay with Streptococcus pneumoniae [13] it was 0 h. Further, the MIC – broadly, the lowest concentration that inhibits growth of the organism – against Enterococcus faecalis [10] was 0.5 µg/mL (≈ 0.73 µM).

The values above are taken from ChEMBL document CHEMBL1649287, “Postantibiotic effect of ceftaroline against gram-positive organisms” (2009).
